According to US20240262822A1, “WDR5 INHIBITORS AND MODULATORS” (Vanderbilt University, priority 2021, published 2024):

Tests used:
[1] = test system: MV4:11 human cancer cell lines; assay: Cellular viability / anti-proliferative activity, CellTiter-Glo, 5 day protocol; assay type: cell-based; details: Homo sapiens, MV4-11, 120 h, MV4:11 cells, 5 day incubation, read-out: GI50 for representative compounds on cellular proliferation of MV4:11 human cancer cell lines
How it was run: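 MV-4-11 cells in IMDM/10% FBS, 200 cells per well, exposed to 22-point 2-fold dilutions from 30 μM top (0.3% DMSO) for 5 days. Viability by CellTiter-Glo luminescence; GI50 from sigmoidal dose-response fit, mean of at least two replicates.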

[2] = molecular target: T1, WDR5 (Homo sapiens, UniProt P61964); assay: Time Resolved-Fluorescence Energy Transfer (TR-FRET) competition assay, displacement of 10mer-Thr-FAM probe from His-tagged WDR5; assay type: binding; details: WDR5-His tag 2 nM, 10mer-Thr-FAM 150 nM, 60 minutes at room temperature; read-out: Ki for Exemplified Compounds for Inhibition of WDR5 by TR-FRET assay
T1 construct: WDR5-His Tag (A23, residues 24-334) is expressed and purified in our lab; made in house
How it was run: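 Competitive TR-FRET using 2 nM His-tagged WDR5 (residues 24-334), 1 nM Tb-anti-His antibody and 150 nM 10mer-Thr-FAM probe; compounds in a 10-point, 5-fold series from 5 μM, ≤1% DMSO. Incubated 60 min at room temperature in PBS with 300 mM NaCl, 0.5 mM TCEP, 0.1% CHAPS, pH 7.2; 520/495 nm emission gave IC50, converted to Ki by the Wang equation.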

| SMILES | GI50 [1] [nM] | Ki [2] [nM] |
| --- | --- | --- |
| COc1cc2c(N3CCc4c(cc(Cn5ccnc5)cc4-c4cn(C)nc4C(F)(F)F)C3=O)nc(C)nc2cc1F [Example 53, 7-((1H-Imidazol-1-yl)methyl)-2-(7-fluoro-6-methoxy-2-methylquinazolin-4-yl)-5-(1-methyl-3-(trifluoromethyl)-1H-pyrazol-4-yl)-3,4-dihydroisoquinolin-1(2H)-one] | < 20 | < 0.02 |
| COc1cc2nc(N3CCOCC3)nc(N3CCc4c(cc(Cn5ccnc5)cc4-c4cn(C)nc4C(F)(F)F)C3=O)c2cc1OC [Example 56, 7-((1H-Imidazol-1-yl)methyl)-2-(6,7-dimethoxy-2-morpholinoquinazolin-4-yl)-5-(1-methyl-3-(trifluoromethyl)-1H-pyrazol-4-yl)-3,4-dihydroisoquinolin-1(2H)-one] | < 20 | < 0.02 |
| COc1cnc2cc(C)cc(N3CCc4c(cc(Cn5ccnc5C)cc4-c4cn(C)nc4C(F)(F)F)C3=O)c2c1 [Example 2, 2-(3-Methoxy-7-methylquinolin-5-yl)-7-((2-methyl-1H-imidazol-1-yl)methyl)-5-(1-methyl-3-(trifluoromethyl)-1H-pyrazol-4-yl)-3,4-dihydroisoquinolin-1(2H)-one] | < 20 | < 0.02 |
| CCn1nc(C)cc1-c1cc(Cn2ccnc2)cc2c1CCN(c1nc(C)nc3cc(OC)c(OC)cc13)C2=O [Example 58, 7-((1H-Imidazol-1-yl)methyl)-2-(6,7-dimethoxy-2-methylquinazolin-4-yl)-5-(1-ethyl-3-methyl-1H-pyrazol-5-yl)-3,4-dihydroisoquinolin-1(2H)-one] | 195 | 0.03 |
| CCOc1nc(CC)cc2c(N3CCc4c(cc(Cn5ccnc5)cc4-c4cn(C)nc4C(F)(F)F)C3=O)ccnc12 [Example 36, 7-((1H-Imidazol-1-yl)methyl)-2-(8-ethoxy-6-ethyl-1,7-naphthyridin-4-yl)-5-(1-methyl-3-(trifluoromethyl)-1H-pyrazol-4-yl)-3,4-dihydroisoquinolin-1(2H)-one] | < 20 | < 0.02 |
